# Columns and labels:
# [1] = tested on: HSV-1 infected mice (zoster-associated pain in acute phase); assay: Mouse model of herpes zoster, pain-associated reaction to von Frey filament (0.16 g) after intrathecal administration; type: in vivo; details: five to seven days after infection
# Text: Epidermis of the right hind leg (lower part of knee joint) of shaven female C57BL/6J mice was chopped with a bundle of ten 26G injection needles, and coated with a solution (1×10^6 pfu/site) of herpes simplex virus Type I (HSV-1), which as well as varicella zoster virus, belongs to Herpesviridae (family) (Takasaki I, et al., Anesthesiology, 2002, 96:1168-1174). Seven days after infection, the spinal cord was collected after perfusion of 4% neutral buffered paraformaldehyde, replaced with 30% sucrose solution, embedded with OCT compound to prepare frozen slices. […]
# The effect of P2X4 receptor antagonism on zoster-associated pain in acute phase was studied using the mouse model of herpes zoster described in Example 2. […] Threshold of the pain was measured before administration of the drug (AM 9:30 to 10:00 and PM 5:30 to 6:00). Pain-associated reaction on the HSV-1 infection side hindpaw was measured using von Frey Filament (0.16 g). […] The pain reaction was evaluated as follows: • Score 0: No reaction • Score 1: Lifting of hind leg • Score 2: Sharp evasion reaction and flinching of hind leg
# Each individual pain score was calculated by averaging six scores. The allodynia score (%) was calculated as the average score of each group by counting the maximum reaction score 2 as 100%.
# Threshold of the pain was measured before administration of the drugs (AM 9:30 to 10:00 and PM 5:30 to 6:00).
# [2] = molecular target: T1, P2X4 receptor (Homo sapiens, UniProt Q99571); details: reported in cited WO documents and Nagata K, Imai T et al., Molecular Pain, 2009, 5:20; cited from earlier work
# T1 sequence (Q99571 1-388): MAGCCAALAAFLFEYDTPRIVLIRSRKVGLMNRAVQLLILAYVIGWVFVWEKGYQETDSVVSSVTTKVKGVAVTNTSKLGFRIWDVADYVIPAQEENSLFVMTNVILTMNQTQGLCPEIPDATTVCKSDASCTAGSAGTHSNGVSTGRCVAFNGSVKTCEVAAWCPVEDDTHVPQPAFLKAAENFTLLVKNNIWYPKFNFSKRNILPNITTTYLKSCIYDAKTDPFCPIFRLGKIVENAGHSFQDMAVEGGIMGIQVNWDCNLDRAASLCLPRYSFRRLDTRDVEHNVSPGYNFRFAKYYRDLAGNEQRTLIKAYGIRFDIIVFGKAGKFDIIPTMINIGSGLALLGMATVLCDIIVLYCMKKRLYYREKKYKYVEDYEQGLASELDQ
# [3] = tested on: HSV-1 infected mice (zoster-associated pain); assay: Mouse model of herpes zoster, pain-associated reaction to paintbrush stimulus after oral administration; type: in vivo
# Text: Epidermis of the right hind leg (lower part of knee joint) of shaven female C57BL/6J mice was chopped with a bundle of ten 26G injection needles, and coated with a solution (1×10^6 pfu/site) of herpes simplex virus Type I (HSV-1), which as well as varicella zoster virus, belongs to Herpesviridae (family) (Takasaki I, et al., Anesthesiology, 2002, 96:1168-1174). Seven days after infection, the spinal cord was collected after perfusion of 4% neutral buffered paraformaldehyde, replaced with 30% sucrose solution, embedded with OCT compound to prepare frozen slices. A specimen in cross section was prepared at the fifth lumbar level of the spinal cord, and was subjected to a fluorescent double immunostaining according to Alexa Fluor 488, 546 using OX42 antibody, which has widely been used as a microglia marker, and P2X4 receptor antibody. […] The pain-associated reaction of the hindpaw on the HSV-1 infection side was measured and evaluated referring to the response to a contact stimulant using a paint-brush. The mouse was placed into a cage for measurement, and accustomed to the environment for 1 hour or more. The plantar surface of the right hindpaw was vertically stroked with the paintbrush along the direction from toe to heal, and this was repeated six times at intervals of several seconds. The pain reaction was evaluated as follows: • Score 0: No reaction • Score 1: Lifting of hind leg • Score 2: Sharp evasion reaction and flinching of hind leg Each individual pain score was calculated by averaging six scores.
SMILES,"threshold score of the pain (von Frey, allodynia score) ([1]; 10 pmol/mouse intrathecal twice a day)","threshold score of the pain (von Frey, allodynia score) ([1]; 30 pmol/mouse intrathecal twice a day)",P2X4 receptor antagonism / inhibition (in words) [2],"threshold of the pain (paintbrush pain score) ([3]; seven days after infection (acute phase), 30 mg/kg oral, from 1 hour to 4 hours after administration)","threshold of the pain (paintbrush pain score) ([3]; seven days after infection (acute phase), 50 mg/kg oral, from 30 minutes to 8 hours after administration)","threshold of the pain (paintbrush pain score) ([3]; thirty days after infection (postherpetic neuralgia), 30 mg/kg oral)","threshold of the pain (paintbrush pain score) ([3]; thirty days after infection (postherpetic neuralgia), 50 mg/kg oral, 30 minutes, 1 hour and 4 hours after administration)"
"O=C1CC(=O)N(c2cccc(-c3noc(=S)[nH]3)c2)c2ccc3ccccc3c2N1.[Na] [Compound A, 5-[3-(5-thioxo-4H-[1,2,4]oxadiazol-3-yl)phenyl]-1H-naphtho[1,2-b][1,4]diazepine-2,4(3H,5H)-dione sodium salt]",significantly suppressed,significantly suppressed,–,–,–,–,–
Fc1ccc([C@@H]2CCNC[C@H]2COc2ccc3c(c2)OCO3)cc1 [Paroxetine],–,–,functions as an inhibitor of P2X4 receptor,significantly improved,continuously improved,did not show any significant improvement,significant improvement was observed

# Reference: patent US9115123B2, “Preventive or therapeutic agent for pain associated with herpes zoster in acute phase” (Kyushu University, priority 2010, dated 2015)
